Assay results as given in ChEMBL document CHEMBL2073936, “A novel human hepatic organic anion transporting polypeptide (OATP2). Identification of a liver-specific human organic anion transporting polypeptide and identification of rat and human hydroxymethylglutaryl-CoA reductase inhibitor transporters” (J Biol Chem, 1999).

Assays:
Type in all cases: functional, cell-based
[1] = biological target: T1, Solute carrier organic anion transporter family member 1A4 (Rattus norvegicus, UniProt O35913); experiment: TP_TRANSPORTER: uptake in Oatp2-expressing 293c18 cells; conditions: human, hek293-ebna
T1 sequence (O35913 whole entry): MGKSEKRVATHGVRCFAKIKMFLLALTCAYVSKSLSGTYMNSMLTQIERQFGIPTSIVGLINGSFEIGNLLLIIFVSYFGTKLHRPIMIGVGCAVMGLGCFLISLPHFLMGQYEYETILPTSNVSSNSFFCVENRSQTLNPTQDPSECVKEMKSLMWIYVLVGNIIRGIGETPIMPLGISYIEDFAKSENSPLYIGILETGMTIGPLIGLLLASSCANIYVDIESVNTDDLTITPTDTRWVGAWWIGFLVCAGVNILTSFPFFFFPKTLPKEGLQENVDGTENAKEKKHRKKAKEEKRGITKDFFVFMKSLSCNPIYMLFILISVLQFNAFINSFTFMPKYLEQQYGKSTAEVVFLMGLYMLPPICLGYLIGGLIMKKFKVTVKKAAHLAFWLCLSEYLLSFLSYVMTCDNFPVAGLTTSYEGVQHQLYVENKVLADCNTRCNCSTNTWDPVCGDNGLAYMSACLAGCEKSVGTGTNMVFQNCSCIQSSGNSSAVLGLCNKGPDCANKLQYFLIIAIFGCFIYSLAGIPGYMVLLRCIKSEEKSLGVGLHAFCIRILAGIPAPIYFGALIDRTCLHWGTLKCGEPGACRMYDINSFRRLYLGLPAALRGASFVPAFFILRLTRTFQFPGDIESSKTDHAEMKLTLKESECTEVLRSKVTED

[2] = biological target: T2, Solute carrier organic anion transporter family member 1A1 (Rattus norvegicus, UniProt P46720); experiment: TP_TRANSPORTER: inhibition of Taurocholate uptake (Taurocholate: 0.5 uM, Pravastatin: 50 uM) in Oatp1-expressing 293c18 cells; conditions: human, hek293-ebna
T2 sequence (P46720 whole entry): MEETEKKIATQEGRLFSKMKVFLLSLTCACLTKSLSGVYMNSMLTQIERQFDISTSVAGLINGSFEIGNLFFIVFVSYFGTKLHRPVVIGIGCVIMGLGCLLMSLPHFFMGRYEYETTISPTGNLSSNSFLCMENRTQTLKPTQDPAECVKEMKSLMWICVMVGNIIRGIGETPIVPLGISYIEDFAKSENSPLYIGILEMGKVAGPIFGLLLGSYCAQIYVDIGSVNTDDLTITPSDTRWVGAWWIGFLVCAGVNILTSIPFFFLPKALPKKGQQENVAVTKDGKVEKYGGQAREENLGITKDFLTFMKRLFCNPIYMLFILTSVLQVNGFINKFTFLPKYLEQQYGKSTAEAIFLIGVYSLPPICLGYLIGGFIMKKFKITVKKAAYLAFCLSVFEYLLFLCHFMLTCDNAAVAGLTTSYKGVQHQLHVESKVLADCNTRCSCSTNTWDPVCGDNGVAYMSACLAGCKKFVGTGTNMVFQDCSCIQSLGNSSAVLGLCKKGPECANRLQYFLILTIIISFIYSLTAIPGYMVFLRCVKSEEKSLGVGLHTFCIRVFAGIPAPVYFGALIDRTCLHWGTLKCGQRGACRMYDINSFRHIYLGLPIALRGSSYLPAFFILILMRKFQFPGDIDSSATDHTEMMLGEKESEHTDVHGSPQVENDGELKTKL

[3] = biological target: T3, Solute carrier organic anion transporter family member 1A2 (Homo sapiens, UniProt P46721); experiment: TP_TRANSPORTER: uptake in OATP-A-expressing 293c18 cell; conditions: hek293-ebna
T3 sequence (P46721 whole entry): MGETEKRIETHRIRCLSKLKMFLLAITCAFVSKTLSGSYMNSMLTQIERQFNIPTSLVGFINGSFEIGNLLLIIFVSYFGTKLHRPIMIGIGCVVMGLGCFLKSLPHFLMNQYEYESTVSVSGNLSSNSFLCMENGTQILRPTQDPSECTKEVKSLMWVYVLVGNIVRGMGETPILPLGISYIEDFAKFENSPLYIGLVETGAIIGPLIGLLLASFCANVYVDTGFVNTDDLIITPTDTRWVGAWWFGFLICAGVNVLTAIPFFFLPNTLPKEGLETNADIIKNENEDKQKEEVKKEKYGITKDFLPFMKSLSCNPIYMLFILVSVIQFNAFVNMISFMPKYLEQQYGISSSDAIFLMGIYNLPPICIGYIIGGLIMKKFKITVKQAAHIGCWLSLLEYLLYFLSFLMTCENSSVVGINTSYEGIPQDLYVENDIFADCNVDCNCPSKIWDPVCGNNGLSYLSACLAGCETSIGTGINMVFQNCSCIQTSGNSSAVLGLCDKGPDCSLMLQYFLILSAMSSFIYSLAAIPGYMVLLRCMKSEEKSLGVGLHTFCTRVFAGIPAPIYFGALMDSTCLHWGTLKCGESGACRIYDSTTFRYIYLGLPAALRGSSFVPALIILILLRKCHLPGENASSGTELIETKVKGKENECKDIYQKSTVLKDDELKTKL

Activity [1]: is not a substrate [-] | Activity [2]: inhibitor [+] | Activity [3]: is not a substrate [-]
SMILES: CC[C@H](C)C(=O)O[C@H]1C[C@H](O)C=C2C=C[C@H](C)[C@H](CC[C@@H](O)C[C@@H](O)CC(=O)O)[C@H]21 [PRAVASTATIN]
